Assay results: patent US20200171166A1, “GEL COMPOSITION AND METHOD FOR PRODUCING GEL COMPOSITION” (Shimadzu Corporation, priority 2015, published 2020)

Test system: three-dimensional cultured corneal epithelium model from human normal corneal epithelium cells (LabCyte CORNEA-MODEL)
Test: Irritativeness test using a cornea model (WST-8 assay)
Format: cell-based
Conditions: exposure to 50 μL of test substance
Protocol: Prepared as test substances were hydrogels made under the same conditions as in the above preparation examples 3A to 3C (prepared from methanol gel, ethanol gel, and 2-butanol gel, respectively); solution in which 611 mg of NMP was added to 500 mg of PLGA; NMP; and distilled water (negative reference). A standard protocol was followed using a three-dimensional cultured corneal epithelium model from human normal corneal epithelium cells (J-TEC, LabCyte CORNEA-MODEL), and exposure tests were carried out on 50 μL of the test substances. Using a WST-8 assay kit (Dojin Chemical, product code: CK04), following the exposure test, a WST-8 assay was done on the samples, the OD value was measured with a plate reader (TECAN, Infinite 200 Pro), and the relative survival rate (proportion of live cells) was calculated for the negative object (distilled water).

SMILES: CN1CCCC1=O [NMP, N-methyl pyrrolidone]
- irritativeness toward the cornea: strong
